{"source": "paper PMC12144444", "about": "“Cooperative inhibition in cytochrome P450 between a substrate and an apparent noncompetitive inhibitor” (The Journal of Biological Chemistry, 2025)", "molecular_target": "CYP105A1 R84A (Streptomyces griseolus, UniProt P18326, R84A)", "sequence (P18326 whole entry R84A)": "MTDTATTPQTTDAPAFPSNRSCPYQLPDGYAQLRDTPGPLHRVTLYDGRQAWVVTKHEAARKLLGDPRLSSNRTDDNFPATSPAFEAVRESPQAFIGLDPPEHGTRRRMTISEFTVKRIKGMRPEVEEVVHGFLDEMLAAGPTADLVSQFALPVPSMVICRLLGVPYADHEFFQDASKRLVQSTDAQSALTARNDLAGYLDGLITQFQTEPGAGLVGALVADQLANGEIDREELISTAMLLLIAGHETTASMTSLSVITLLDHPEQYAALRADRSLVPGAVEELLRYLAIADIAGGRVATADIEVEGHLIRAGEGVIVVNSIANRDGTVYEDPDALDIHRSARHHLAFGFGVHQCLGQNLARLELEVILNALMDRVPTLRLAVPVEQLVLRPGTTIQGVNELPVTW", "settings": "diclofenac 4′-hydroxylation, Lineweaver-Burk and Dixon plots", "description": "Ethanol concentration in the final reaction solution was 0.8%. […] After each interval, the reaction was stopped by an addition of 50 μl of acetonitrile into each reaction solution. The solution was centrifuged at 10,000 x g for 15 min, and the resultant supernatant was analyzed by ultra performance liquid chromatography (UPLC) under the following conditions: apparatus, H-Class (Waters Co.); column, ACQUITY UPLC BEH C18 (1.7 μm, 2.1 × 100 mm) (Waters Co.); UV detection, 276 nm; column temperature, 40 °C; flow rate, 0.7 ml/min; injection volume, 10 μl; mobile phase, a linear gradient of 25 to 43% acetonitrile in aqueous solution containing 0.1% trifluoroacetic acid (TFA) for 3 min, followed by 43 to 58% acetonitrile in aqueous solution containing 0.1% TFA for 1 min, followed by 58 to 100% acetonitrile in aqueous solution containing 0.1% TFA for 2 min. […] Two separate experiments were performed to obtain the kobs value for 30 μM diclofenac in 5 μM miconazole. Three separate experiments were performed to obtain all other kobs values. Lineweaver-Burk plot and Dixon plot were prepared from the obtained kobs for each reaction.", "data": [{"molecule": "N#C/C(=C1/SCC(c2ccccc2Cl)S1)n1ccnc1", "note": "(centres unmarked) [Lanoconazole]", "values": [{"measurement": "Type of inhibition", "result": "noncompetitive inhibition"}]}, {"molecule": "Clc1ccc(COC(Cn2ccnc2)c2ccc(Cl)cc2Cl)c(Cl)c1", "note": "(centres unmarked) [Miconazole]", "values": [{"measurement": "Type of inhibition", "result": "competitive inhibition"}]}]}
